# Results reported in PubChem BioAssay (NCI).
# Where “and” joins values, the source holds several entries; their conditions need not be identical. Identical values can stand only once.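 Growth conditions: 96-well plates. Treatment: test compound, 48 hours, 5 concentrations. Analysis: linear interpolation between bracketing concentrations; unreached endpoints set to highest concentration. GI50 = concentration required for 50% inhibition of growth. TGI denotes the concentration required for complete inhibition of growth.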
# How the values were obtained:
# Test in all cases: NCI tumour cell line growth inhibition, 48 h
# 786-0 renal = system: 786-0 renal
# A498 renal = system: A498 renal
# ACHN renal = system: ACHN renal
# BT-549 breast = system: BT-549 breast
# CAKI-1 renal = system: CAKI-1 renal
# CCRF-CEM leukemia = system: CCRF-CEM leukemia
# COLO 205 colon = system: COLO 205 colon
# DLD-1 colon = system: DLD-1 colon
# DMS 114 small cell lung = system: DMS 114 small cell lung
# DMS 273 small cell lung = system: DMS 273 small cell lung
# DU-145 prostate = system: DU-145 prostate
# EKVX NSCLC = system: EKVX NSCLC
# HCC-2998 colon = system: HCC-2998 colon
# HCT-116 colon = system: HCT-116 colon
# HOP-18 NSCLC = system: HOP-18 NSCLC
# HOP-62 NSCLC = system: HOP-62 NSCLC
# HOP-92 NSCLC = system: HOP-92 NSCLC
# HS 578T breast = system: HS 578T breast
# IGROV1 ovarian = system: IGROV1 ovarian
# K-562 leukemia = system: K-562 leukemia
# KM20L2 colon = system: KM20L2 colon
# LOX IMVI melanoma = system: LOX IMVI melanoma
# M14 melanoma = system: M14 melanoma
# M19-MEL melanoma = system: M19-MEL melanoma
# MALME-3M melanoma = system: MALME-3M melanoma
structure (smiles),measurement,setting,value
CCOC(=O)C(CC(C)C)NC(=O)C(Cc1ccc(N(CCCl)CCCl)cc1)NC(C)=O (stereo not drawn),GI50,786-0 renal,4.11 µM
same,TGI,786-0 renal,16.6 µM and 8.47 µM
same,GI50,A498 renal,18.4 µM
same,TGI,A498 renal,37 µM and 48.4 µM
same,GI50,ACHN renal,3.7 µM
same,TGI,ACHN renal,16 µM and 9.63 µM
same,TGI,BT-549 breast,32.3 µM
same,GI50,CAKI-1 renal,3.71 µM
same,TGI,CAKI-1 renal,16.2 µM and 6.73 µM
same,GI50,CCRF-CEM leukemia,2.52 µM
same,GI50,COLO 205 colon,7.01 µM
same,TGI,COLO 205 colon,19.8 µM and 13 µM
same,GI50,DLD-1 colon,5.4 µM and 8.64 µM
same,TGI,DLD-1 colon,21.1 µM and 31.3 µM
same,GI50,DMS 114 small cell lung,1.37 µM
same,TGI,DMS 114 small cell lung,12.2 µM and 7.05 µM
same,TGI,DMS 273 small cell lung,20.1 µM and 24.9 µM
same,TGI,DU-145 prostate,21.9 µM
same,GI50,EKVX NSCLC,19.7 µM
same,TGI,EKVX NSCLC,35.7 µM and 27.7 µM
same,GI50,HCC-2998 colon,17.2 µM
same,TGI,HCC-2998 colon,31.5 µM and 30.6 µM
same,GI50,HCT-116 colon,12.7 µM
same,TGI,HCT-116 colon,29.3 µM and 39.8 µM
same,TGI,HOP-18 NSCLC,33.7 µM
same,GI50,HOP-62 NSCLC,6.09 µM
same,TGI,HOP-62 NSCLC,23.1 µM and 14.2 µM
same,GI50,HOP-92 NSCLC,1.25 µM
same,TGI,HOP-92 NSCLC,3.75 µM and 1.4 µM
same,TGI,HS 578T breast,20.2 µM
same,TGI,IGROV1 ovarian,33.2 µM and 29.3 µM
same,GI50,K-562 leukemia,11.6 µM
same,TGI,K-562 leukemia,49.7 µM and 54.6 µM
same,GI50,KM20L2 colon,13.8 µM
same,TGI,KM20L2 colon,29.7 µM and 46.9 µM
same,GI50,LOX IMVI melanoma,3.34 µM
same,TGI,LOX IMVI melanoma,15.1 µM and 12.5 µM
same,GI50,M14 melanoma,4.13 µM
same,TGI,M14 melanoma,15.8 µM and 8.08 µM
same,GI50,M19-MEL melanoma,6.3 µM
same,TGI,M19-MEL melanoma,19.3 µM and 15.9 µM
same,GI50,MALME-3M melanoma,4.01 µM
same,TGI,MALME-3M melanoma,22.8 µM and 7.77 µM
